Test results published in ChEMBL document CHEMBL2412976, “Structure optimization of 2-benzamidobenzoic acids as PqsD inhibitors for Pseudomonas aeruginosa infections and elucidation of binding mode by SPR, STD NMR, and molecular docking” (J Med Chem, 2013).
Changes are numbered by the printed parent chain. Values belong to the molecule of their own block, whether it stands above or below them. Active and inactive are the calls of the source. No cut-off for these calls is given here.

Tests used:
Pseudomonas aeruginosa [1] = assay: Binding affinity to Pseudomonas aeruginosa PqsD at 100 uM by surface plasmon resonance analysis in presence of ACoA
[2] = Inhibition of Pseudomonas aeruginosa PqsD using ACoA/beta-ketodecanoic acid as substrate assessed as HHQ formation incubated for 30 mins prior to ACoA addition followed by 10 mins after treated with beta-ketodecanoic acid measured for 40 mins
[3] = Inhibition of Pseudomonas aeruginosa PqsD using ACoA/beta-ketodecanoic acid as substrate assessed as HHQ formation incubated for 10 mins prior to ACoA/beta-ketodecanoic acid addition measured for 40 mins
Pseudomonas aeruginosa [4] = assay: Binding affinity to Pseudomonas aeruginosa wild-type PqsD by NMR spectroscopy analysis
Pseudomonas aeruginosa [5] = assay: Inhibition of Pseudomonas aeruginosa PqsD assessed as HHQ formation at 50 uM incubated 30 mins prior to substrate addition
[6] = tested on: T1, 2-heptyl-4(1H)-quinolone synthase PqsD (Pseudomonas aeruginosa), A0A0C7ACN7 [H258F]; assay: Binding affinity to Pseudomonas aeruginosa PqsD H257F mutant expressed in Escherichia coli BL21 (lambdaDE3) cells by surface plasmon resonance analysis
T1 sequence (whole entry): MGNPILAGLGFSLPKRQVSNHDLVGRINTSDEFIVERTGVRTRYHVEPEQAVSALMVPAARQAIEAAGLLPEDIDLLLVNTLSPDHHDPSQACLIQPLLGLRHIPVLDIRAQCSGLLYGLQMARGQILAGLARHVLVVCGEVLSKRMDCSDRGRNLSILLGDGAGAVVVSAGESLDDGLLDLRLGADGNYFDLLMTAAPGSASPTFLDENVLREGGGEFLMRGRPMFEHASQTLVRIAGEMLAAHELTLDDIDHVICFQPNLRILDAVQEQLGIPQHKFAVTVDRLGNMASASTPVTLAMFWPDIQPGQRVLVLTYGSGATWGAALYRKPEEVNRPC

[7] = tested on: T2, 2-heptyl-4(1H)-quinolone synthase PqsD (Pseudomonas aeruginosa), A0A0C7ACN7 [S318F]; assay: Binding affinity to Pseudomonas aeruginosa PqsD S317F mutant expressed in Escherichia coli BL21 (lambdaDE3) cells by surface plasmon resonance analysis
T2 sequence (whole entry): T1 sequence (whole entry) with F258H, S318F

Pseudomonas aeruginosa [8] = assay: Binding affinity to Pseudomonas aeruginosa wild-type PqsD expressed in Escherichia coli BL21 (lambdaDE3) cells by surface plasmon resonance analysis
Pseudomonas aeruginosa [9] = assay: Binding affinity to Pseudomonas aeruginosa PqsD at 20 uM by surface plasmon resonance analysis in absence of ACoA
Pseudomonas aeruginosa [10] = assay: Binding affinity to Pseudomonas aeruginosa PqsD at 20 uM incubated prior to ACoA addition by surface plasmon resonance analysis in presence of ACoA
[11] = tested on: T3, 2-heptyl-4(1H)-quinolone synthase PqsD (Pseudomonas aeruginosa), A0A0C7ACN7 [C113A]; assay: Binding affinity to Pseudomonas aeruginosa PqsD C112A mutant expressed in Escherichia coli BL21 (lambdaDE3) cells by surface plasmon resonance analysis
T3 sequence (whole entry): T1 sequence (whole entry) with C113A, F258H

Pseudomonas aeruginosa [12] = assay: Binding affinity to Pseudomonas aeruginosa PqsD at 20 uM by surface plasmon resonance analysis in presence of ACoA
[13] = Binding affinity to Pseudomonas aeruginosa wild-type PqsD by isothermal titration calorimetry

SMILES: Cc1ccc(S(=O)(=O)c2cc(O)c3ccccc3c2O)cc1
Activity (Pseudomonas aeruginosa [1]): inactive
IC50 [2]: 1.1 µM
IC50 [3]: 0.15 µM

SMILES: CCN(Cc1ccccc1)S(=O)(=O)c1cccc(C(=O)Nc2ccccc2C(=O)O)c1
IC50 [2]: 12.9 µM
IC50 [3]: 16.5 µM
Activity (Pseudomonas aeruginosa [4]): Active

SMILES: CCN(CC)S(=O)(=O)c1cccc(C(=O)Nc2cc(F)ccc2C(=O)O)c1
IC50 [3]: 8 µM

SMILES: CCN(CC)S(=O)(=O)c1cccc(C(=O)Nc2ccc(C#N)cc2C(=O)O)c1
IC50 [3]: 26.2 µM

SMILES: NS(=O)(=O)c1cccc(C(=O)Nc2ccccc2C(=O)O)c1
IC50 [3]: 43.6 µM

SMILES: CCN(CC)S(=O)(=O)c1cccc(C(=O)Nc2cccc(OC)c2C(=O)O)c1
inhibition (Pseudomonas aeruginosa [5]): 44%

SMILES: CCCN(CCC)S(=O)(=O)c1cccc(C(=O)Nc2ccccc2C(=O)O)c1
IC50 [3]: 5.4 µM

SMILES: CCN(CC)C(=O)c1cccc(C(=O)Nc2ccccc2C(=O)O)c1
inhibition (Pseudomonas aeruginosa [5]): < 10%

SMILES: CCN(CC)S(=O)(=O)c1cccc(C(=O)Nc2cc(Cl)ccc2C(=O)O)c1
IC50 [3]: 9.4 µM

SMILES: CCN(CC)S(=O)(=O)c1cccc(C(=O)Nc2ccccc2C(=O)O)c1
IC50 [2]: 19.4 µM
IC50 [3]: 19.8 µM
inhibition (Pseudomonas aeruginosa [5]): 69%
Activity (Pseudomonas aeruginosa [4]): Active

SMILES: CCN(CC)S(=O)(=O)c1cccc(C(=O)Nc2cccc(C(=O)O)c2)c1
inhibition (Pseudomonas aeruginosa [5]): 13%

SMILES: CCN(CC)S(=O)(=O)c1cccc(C(=O)Nc2ccc(-c3ccccc3)cc2C(=O)O)c1
IC50 [2]: 4.2 µM
Activity [6]: Active
Activity [7]: Active
Activity (Pseudomonas aeruginosa [8]): Active
Activity (Pseudomonas aeruginosa [9]): Active
IC50 [3]: 3 µM
Activity (Pseudomonas aeruginosa [10]): Active
Activity [11]: Active
Activity (Pseudomonas aeruginosa [12]): Active
Kd [13]: 5.2 µM

SMILES: CCN(CC)S(=O)(=O)c1cccc(C(=O)Nc2cc([N+](=O)[O-])ccc2C(=O)O)c1
IC50 [3]: 6.3 µM

SMILES: CCN(CC)C(=O)c1cccc(C(=O)Nc2ccc(Br)cc2C(=O)O)c1
IC50 [3]: 25.5 µM

SMILES: O=C(Nc1ccccc1C(=O)O)c1ccc(-c2ccccc2)c(Oc2ccccc2)c1
IC50 [3]: 6.6 µM

SMILES: CCN(CC)S(=O)(=O)c1cccc(C(=O)Nc2ccccc2C(N)=O)c1
inhibition (Pseudomonas aeruginosa [5]): 21%

SMILES: CCN(CC)S(=O)(=O)c1cccc(C(=O)Nc2ccc(-c3ccc(C(N)=O)cc3)cc2C(=O)O)c1
IC50 [3]: 1.9 µM

SMILES: CCN(CC)S(=O)(=O)c1cccc(C(=O)Nc2ccc([N+](=O)[O-])cc2C(=O)O)c1
IC50 [3]: 8.9 µM

SMILES: O=C(Nc1ccccc1C(=O)O)c1cccc(S(=O)(=O)N2CCCC2)c1
inhibition (Pseudomonas aeruginosa [5]): 47%

SMILES: CN(C)S(=O)(=O)c1cccc(C(=O)Nc2ccccc2C(=O)O)c1
inhibition (Pseudomonas aeruginosa [5]): 35%

SMILES: CCN(CC)S(=O)(=O)c1cc(C(=O)Nc2ccc(Br)cc2C(=O)O)ccc1Br
IC50 [3]: 3.8 µM

SMILES: CCN(CC)S(=O)(=O)c1cccc(C(=O)Nc2ccc(Br)cc2C(=O)O)c1
IC50 [2]: 7 µM
Activity [6]: Active
Activity [7]: Active
Activity (Pseudomonas aeruginosa [8]): Active
Activity (Pseudomonas aeruginosa [9]): Active
IC50 [3]: 9.9 µM
Activity [11]: Active
Activity (Pseudomonas aeruginosa [12]): Active

SMILES: CCN(CC)S(=O)(=O)c1cccc(C(=O)Nc2ccc(-c3cccc(C(=O)O)c3)cc2C(=O)O)c1
IC50 [2]: 1.6 µM
IC50 [3]: 1.5 µM

SMILES: CCc1ccc(C(=O)Nc2ccccc2C(=O)O)cc1S(=O)(=O)N(CC)CC
inhibition (Pseudomonas aeruginosa [5]): 39%

SMILES: CCN(CC)S(=O)(=O)c1cc(C(=O)Nc2ccccc2C(=O)O)ccc1Br
Activity [6]: Active
Activity [7]: Active
Activity (Pseudomonas aeruginosa [8]): Active
IC50 [3]: 6.9 µM
Activity [11]: Active

SMILES: O=[N+]([O-])c1ccccc1C(O)c1ccccc1 (configuration not stated)
IC50 [3]: 3.2 µM

Results, then the molecule that gave them:

IC50 [2]: 1.1 µM
IC50 [3]: 1.2 µM
Activity (Pseudomonas aeruginosa [4]): Active
SMILES: CCN(CC)S(=O)(=O)c1cccc(C(=O)Nc2cccc(O)c2C(=O)O)c1

inhibition (Pseudomonas aeruginosa [5]): 16%
SMILES: O=C(Nc1ccccc1C(=O)O)c1cccc(S(=O)(=O)N2CCOCC2)c1

IC50 [3]: 27.3 µM
SMILES: CCN(CC)S(=O)(=O)c1cc(C(=O)Nc2ccccc2C(=O)O)ccc1C

IC50 [3]: 24.9 µM
SMILES: CCN(CC)S(=O)(=O)c1cccc(C(=O)Nc2cccc(F)c2C(=O)O)c1

IC50 [3]: 6.6 µM
SMILES: CCN(CC)S(=O)(=O)c1cc(C(=O)Nc2ccc(F)cc2C(=O)O)ccc1Br

IC50 [3]: 39 µM
SMILES: CCN(CC)S(=O)(=O)c1cccc(C(=O)Nc2cccc(Cl)c2C(=O)O)c1

IC50 [3]: 14.8 µM
SMILES: O=C(Nc1ccccc1C(=O)O)c1cccc(S(=O)(=O)N2CCCCCC2)c1

IC50 [3]: 11.4 µM
SMILES: CCN(CC)S(=O)(=O)c1cccc(C(=O)Nc2ccc(F)cc2C(=O)O)c1

IC50 [3]: 14.4 µM
SMILES: O=C(Nc1ccccc1C(=O)O)c1cccc(S(=O)(=O)N2CCCCC2)c1

IC50 [3]: 12.4 µM
SMILES: CCN(CC)S(=O)(=O)c1cccc(C(=O)Nc2ccc(C(F)(F)F)cc2C(=O)O)c1

IC50 [3]: 13 µM
SMILES: CCN(CC)S(=O)(=O)c1ccc(C(=O)Nc2ccc(Br)cc2C(=O)O)cc1

IC50 [3]: 18.4 µM
SMILES: CCN(CC)S(=O)(=O)c1cccc(C(=O)Nc2ccc(C)cc2C(=O)O)c1

inhibition (Pseudomonas aeruginosa [5]): 44%
SMILES: CCN(CC)S(=O)(=O)c1ccc(C(=O)Nc2ccccc2C(=O)O)cc1

IC50 [3]: 3.8 µM
SMILES: CCN(CC)S(=O)(=O)c1cccc(C(=O)Nc2ccc(-c3cccc(C(N)=O)c3)cc2C(=O)O)c1

IC50 [2]: 2 µM
IC50 [3]: 2.7 µM
SMILES: CCN(CC)S(=O)(=O)c1cccc(C(=O)Nc2ccc(-c3ccc(C(=O)O)cc3)cc2C(=O)O)c1
